Earlier results in US20040143855A1, “Ion channels as targets for sleep-related drugs” (priority 2002, published 2004).

Columns and labels:
TREK-1 = molecular target: T1, TREK-1 (Homo sapiens, UniProt O95069); conditions: volatile general anesthetics
T1 sequence (O95069 1-426): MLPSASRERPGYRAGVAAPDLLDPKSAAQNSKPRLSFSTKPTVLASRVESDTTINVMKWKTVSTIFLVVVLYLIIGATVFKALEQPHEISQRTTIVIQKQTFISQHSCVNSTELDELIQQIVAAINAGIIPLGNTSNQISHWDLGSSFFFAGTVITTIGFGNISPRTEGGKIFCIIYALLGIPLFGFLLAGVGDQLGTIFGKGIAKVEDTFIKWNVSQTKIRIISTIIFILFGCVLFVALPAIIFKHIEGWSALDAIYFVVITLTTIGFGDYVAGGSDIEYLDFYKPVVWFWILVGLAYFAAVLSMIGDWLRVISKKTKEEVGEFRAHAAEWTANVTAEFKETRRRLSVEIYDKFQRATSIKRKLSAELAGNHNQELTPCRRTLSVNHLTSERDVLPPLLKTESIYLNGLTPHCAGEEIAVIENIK

Drosophila = conditions: flies given the drug

Row | SMILES | effect on TREK-1 channel (TREK-1) | sleep (amount) (Drosophila) | sleep latency (Drosophila)
1 | ClC(Cl)Cl [chloroform] | activated |  | 
2 | OCCOCCN1CCN(C(c2ccccc2)c2ccc(Cl)cc2)CC1 (stereo not shown) [hydroxyzine] |  | increased sleep | reduced its latency
3 | CCOCC [diethylether] | activated |  | 
4 | FC(F)OC(Cl)C(F)(F)F (stereo not shown) [isoflurane] | activated |  | 
5 | FC(F)(F)C(Cl)Br (stereo not shown) [halothane] | activated |  | 
6 | Cn1c(=O)c2c(ncn2C)n(C)c1=O [caffeine] |  | dose-dependent decrease in sleep | 
